The structures appear in SMILES notation. Some results are limits rather than exact numbers.

The subject of series [1] is male Swiss albino mice (CD-1). Nature of the series: Psychomotor seizure test 6 Hz (32 mA). It is filed as in vivo. Conditions: 0.5 h, mice; for ED50 / responders at 100 mg/kg: Mus musculus, ip; for responders at 100 mg/kg / 6 Hz (32 mA): number of mice protected/number of mice tested: screening, 100 mg/kg i.p.; for responders at 100 mg/kg: read-out: 6 Hz (32 mA): number of mice protected/number of mice tested (converted). On the procedure:
(§1) The male Swiss albino mice (CD-1) weighing 18-26 g were used. All procedures were carried out in accordance with applicable Polish and international guidelines on the ethics of animal testing, after obtaining appropriate institutional approval. The substances were administered intraperitoneally (i.p.), in 1% aqueous solution of Tween, as single injections with a volume of 10 ml/kg, 30 minutes before the given test. Screening was performed on groups consisted of 4 mice. The average effective dose (ED50) in given test and toxic dose in the rotarod test (TD50) was estimated based on the results obtained in 3-4 groups of animals consisting of 6 mice. All tests were carried out based on the procedures described in the specialist literature.
In the 6 Hz test, seizures were induced by an electric stimulus of 32 mA and/or 44 mA and a frequency of 6 pulses per second. An electrical pulse was generated using an electric shock generator (ECT Unit 57800; Ugo Basile, Gemonio, Italy) and delivered to the animal using ocular electrodes. Before starting the test, the eye surface was gently moistened with a solution of local anesthetic (1% lidocaine solution). The study was conducted 30 minutes after intraperitoneal administration of the compounds at various doses. An electrical pulse was delivered continuously for a period of 3 seconds, followed by observation of the animal for a period of 10 seconds. During this time, immobility or stun associated with rearing, forelimb clonus, twitching of the vibrissae and Straub's tail were observed. These symptoms persist throughout the observation period, indicating the occurrence of psychomotor seizures in mice. Mice resuming normal behavior within 10 s after stimulation were considered as protected (Barton, M. E.; Klein, B. D.; Wolf, H. H.; White, H. S. Epilepsy Res. 2001, 47, 217-227; Wojda, E.; Wlaź, A.; Patsalos, P. N.; Łuszczki, J. J. Epilepsy Res. 2009, 86, 163-174).
(§2) To perform a statistical evaluation of the results, one-way ANOVA variance analysis and Dunnett's post hoc test (multiple comparison test) were used. The value at the significance level p<0.05 was considered statistically significant.

For series [2], the system named is male Swiss albino mice (CD-1). Description: Maximal electroshock seizure test (MES). It is filed as in vivo. Conditions: 0.5 h, mice; for ED50 / responders at 100 mg/kg: Mus musculus, ip; for MES: number of mice protected/number of mice tested / responders at 100 mg/kg: screening, 100 mg/kg i.p.; for responders at 100 mg/kg: read-out: MES: number of mice protected/number of mice tested (converted). As to the method: as §1
In the MES test, the seizures were induced by an electrical stimulus lasting of 0.2 s duration, 500 V voltage and 25 mA intensity. The electrical stimuli was generated using an electric shock generator (Rodent shocker, Type 221, Hugo Sachs Elektronik, Germany) and delivered to the animal using electrodes placed on the auricles. The study was conducted 30 minutes after intraperitoneal administration of the compounds at various doses. During the experiment, the number of animals that experienced a seizure episode in the form of tonic extension of the hind limbs was counted (Kamiński, K.; Rapacz, A.; Łuszczki, J. J.; Latacz, G.; Obniska, J.; Kieć-Kononowicz, K.; Filipek, B. Bioorg. Med. Chem. 2015, 23, 2548-2561; Castel-Branco, M. M.; Alves, G. L.; Figueiredo, I. V.; Falcão, A. C.; Caramona, M. M. Methods Find. Exp. Clin. Pharmacol. 2009, 31, 101-106).
as §2
For orientation: The maximal electroshock test induces tonic seizures with an electrical stimulus.

Series [3] is described as follows: Rotarod test (motor coordination). It is filed as in vivo. Conditions: male, Swiss albino (CD-1), mouse, in vivo, ip, mice. As to the method: All procedures were carried out in accordance with applicable Polish and international guidelines on the ethics of animal testing, after obtaining appropriate institutional approval. The substances were administered intraperitoneally (i.p.), in 1% aqueous solution of Tween, as single injections with a volume of 10 ml/kg, 30 minutes before the given test. Screening was performed on groups consisted of 4 mice. […] All tests were carried out based on the procedures described in the specialist literature.
Mice were trained the day before the actual experiment. They were placed individually on a 2 cm diameter rod rotating at 10 revolutions per minute (rpm). During each training session, the animals remained on the rod for 3 minutes. The experiment was carried out 30 minutes after administration of the compounds. Motor coordination was tested at the speed of the rotating bar: 10 rpm during 60 seconds. Motor impairments were defined as the inability to remain on the rotating rod for 1 min.
as §2

Series [4] deals with male Swiss albino mice (CD-1). Description: Subcutaneous pentylenetetrazole seizure test (scPTZ). Conditions: 0.5 h, mice; for ED50 / responders at 100 mg/kg: Mus musculus, ip; for scPTZ: number of mice protected/number of mice tested / responders at 100 mg/kg: screening, 100 mg/kg i.p.; for responders at 100 mg/kg: read-out: scPTZ: number of mice protected/number of mice tested (converted). It is filed as in vivo. On the procedure: as §1
In the scPTZ test, seizures were induced by subcutaneous administration of pentylenetetrazole (PTZ) at a dose of 100 mg/kg. This caused clonic seizures with accompanying loss of the righting reflex. Test compounds were administered 30 minutes before the experiment. After PTZ administration, the animals were placed individually in transparent containers and observed for a period of 30 minutes for the occurrence of clonic seizures. During this time, the latency of the first onset of clonic seizures, defined as clonus of the whole body lasting at least 3 seconds with loss of the righting reflex and the number of seizure episodes during the test were noted and compared with control group. The absence of clonic convulsions within the observed time period was interpreted as the compound's ability to protect against PTZ-induced seizures (Ferreri, G.; Chimirri, A.; Russo, E.; Gitto, R.; Gareri, P.; De Sarro, A.; De Sarro, G. Pharmacol. Biochem. Behav. 2004, 77, 85-94; Łączkowski, K.; Sałat, K.; Misiura, K.; Podkowa, A.; Malikowska, N. J. Enzyme Inhib. Med. Chem. 2016, 31, 1576-82).
as §2

The melting point is the temperature of the solid-liquid transition. A word on the ED50: it is the dose that gives a 50% effect, or the effect in half of the subjects. A lower ED50 goes with an effect at a small dose. What is called TD50 is the dose at which the toxic effect under study appears in half of the subjects. A high value points to harm only at a large dose. `O=C(C(c1ccccc1)N1C(=O)CCC1=O)N1CCN(c2cc(Cl)cc(Cl)c2)CC1` (racemic) [Compound 4, 1-(2-(4-(3,5-Dichlorophenyl)piperazin-1-yl)-2-oxo-1-phenylethyl)pyrrolidine-2,5-dione] showed a melting point of 163.8 to 165.2 °C. Further, in series [1], the ED50 turned out to be 17.7 mg/kg and the responders at 100 mg/kg is 100%. Also, in series [2], the ED50 stood at 68.5 mg/kg and the “MES: number of mice protected/number of mice tested” value is “¾”. For the same molecule, in series [3], the TD50 at 0.5 h was greater than 300 mg/kg. Also, in series [4], the ED50 is greater than 100 mg/kg and the “scPTZ: number of mice protected/number of mice tested” value is “¾”.
As to `O=C(C(c1ccc(F)cc1)N1C(=O)CCC1=O)N1CCN(c2cccc(C(F)(F)F)c2)CC1` (racemic) [Compound 14, 1-(1-(4-Fluorophenyl)-2-oxo-2-(4-(3-(trifluoromethyl)phenyl)piperazin-1-yl)ethyl)pyrrolidine-2,5-dione], the melting point lay in the range of 88.8 to 90.7 °C. For the same molecule, in series [1], the ED50 was determined as 48.3 mg/kg and the “6 Hz (32 mA): number of mice protected/number of mice tested” value is “¾”. Besides, in series [2], the 50% effect level (ED50) was put at a dose of 56.4 mg/kg and the responders at 100 mg/kg was 100%. Further, in series [3], the TD50 at 0.5 h is greater than 300 mg/kg. Moreover, in series [4], the ED50 was less than 100 mg/kg and the responders at 100 mg/kg is 50%.
For the molecule `O=C(C(c1ccccc1)N1C(=O)CCC1=O)N1CCN(c2ccc3ccccc3c2)CC1` (racemic) [Compound 15, 1-(2-(4-(Naphth-2-yl)piperazin-1-yl)-2-oxo-1-phenylethyl)pyrrolidine-2,5-dione], the melting point is 197.1 to 198.5 °C. Also, the “6 Hz (32 mA): number of mice protected/number of mice tested” value in series [1] is on record as “¾”. For the same molecule, in series [2], the responders at 100 mg/kg is 50%. Moreover, the “scPTZ: number of mice protected/number of mice tested” value in series [4] was “¾”.
`O=C(C(c1ccccc1)N1C(=O)CCC1=O)N1CCN(c2ccc3sccc3c2)CC1` (racemic) [Compound 16, 1-(2-(4-(Benzo[b]thiophen-5-yl)piperazin-1-yl)-2-oxo-1-phenylethyl)pyrrolidine-2,5-dione] yielded a melting point of 164.1 to 165.3 °C. Besides, the “6 Hz (32 mA): number of mice protected/number of mice tested” value in series [1] was “¾”. Besides, in series [2], the “MES: number of mice protected/number of mice tested” value was “¾”. Moreover, the “scPTZ: number of mice protected/number of mice tested” value in series [4] is given as “¾”.
Take `O=C(C(c1ccccc1)N1C(=O)CCC1=O)N1CCC(c2cccc(Cl)c2)CC1` (racemic) [Compound 18, 1-(2-(4-(3-Chlorophenyl)piperidin-1-yl)-2-oxo-1-phenylethyl)pyrrolidine-2,5-dione]: the melting point is 111.8 to 113.4 °C. In addition, the “6 Hz (32 mA): number of mice protected/number of mice tested” value in series [1] is listed as “¾”. In addition, the “MES: number of mice protected/number of mice tested” value in series [2] was “¾”. Besides, the “scPTZ: number of mice protected/number of mice tested” value in series [4] was “¾”.
`O=C(C(c1ccccc1)N1C(=O)CCC1=O)N1CCC(c2cccc(OC(F)(F)F)c2)CC1` (racemic) [Compound 20, 1-(2-Oxo-1-phenyl-2-(4-(3-(trifluoromethoxy)phenyl)piperidin-1-yl)ethyl)pyrrolidine-2,5-dione] returned a melting point of 112.1 to 113.2 °C. Further, in series [1], the “6 Hz (32 mA): number of mice protected/number of mice tested” value was “¾”. For the same molecule, in series [2], the responders at 100 mg/kg was 100%. Also, the responders at 100 mg/kg in series [4] is 50%.
`O=C([C@@H](c1ccccc1)N1C(=O)CCC1=O)N1CCN(c2cccc(Cl)c2)CC1` [(R)-3, (R)-1-(2-(4-(3-chlorophenyl)piperazin-1-yl)-2-oxo-1-phenylethyl)pyrrolidine-2,5-dione] registered a melting point of 167.3 to 168.1 °C. Besides, in series [1], it took a dose of 49.3 mg/kg to reach the 50% effect level (ED50) and the responders at 100 mg/kg is 100%. In series [2], it took a dose of 57.7 mg/kg to reach the 50% effect level (ED50) and the responders at 100 mg/kg is 100%. The TD50 at 0.5 h in series [3] worked out at 223 mg/kg. Moreover, in series [4], the ED50 was determined as 78.3 mg/kg and the “scPTZ: number of mice protected/number of mice tested” value is recorded as “¾”.
With `O=C([C@@H](c1ccccc1)N1C(=O)CCC1=O)N1CCN(c2cc(Cl)cc(Cl)c2)CC1` [(R)-4, (R)-1-(2-(4-(3,5-dichlorophenyl)piperazin-1-yl)-2-oxo-1-phenylethyl)pyrrolidine-2,5-dione], the melting point lay in the range of 174.3 to 175.5 °C. The responders at 100 mg/kg in series [1] was 100%. Further, the responders at 100 mg/kg in series [2] was 100%. In addition, the responders at 100 mg/kg in series [4] is 50%.
In turn, `O=C([C@@H](c1ccccc1)N1C(=O)CCC1=O)N1CCN(c2cccc(OC(F)(F)F)c2)CC1` [(R)-10, (R)-1-(2-Oxo-1-phenyl-2-(4-(3-(trifluoromethoxy)phenyl)piperazin-1-yl)ethyl)pyrrolidine-2,5-dione] returned a melting point of 168.2 to 169.1 °C. Besides, in series [1], the ED50 turned out to be 12.8 mg/kg and the responders at 100 mg/kg is 100%. Besides, in series [2], the 50% effect level (ED50) was put at a dose of 22.6 mg/kg and the responders at 100 mg/kg is 100%. The TD50 at 0.5 h in series [3] is greater than 150 mg/kg. Also, in series [4], the ED50 was less than 60 mg/kg and the responders at 100 mg/kg is 50%.
`CNC1CC(=O)N(C(C(=O)N2CCN(c3cccc(C(F)(F)F)c3)CC2)c2ccccc2)C1=O.Cl` (stereo not shown) [Compound 48, 3-(Methylamino)-1-(2-oxo-1-phenyl-2-(4-(3-(trifluoromethyl)phenyl)piperazin-1-yl)ethyl)pyrrolidine-2,5-dione hydrochloride]: the melting point lay within 161.2 to 163.4 °C. Besides, the responders at 100 mg/kg in series [1] is 100%. For the same molecule, the responders at 100 mg/kg in series [2] was 100%. For the same molecule, the “scPTZ: number of mice protected/number of mice tested” value in series [4] is reported as “¾”.
Regarding `CN(C)C1CC(=O)N(C(C(=O)N2CCN(c3cccc(C(F)(F)F)c3)CC2)c2ccccc2)C1=O.Cl` (stereo not shown) [Compound 49, 3-(Dimethylamino)-1-(2-oxo-1-phenyl-2-(4-(3-(trifluoromethyl)phenyl)-piperazin-1-yl)ethyl)pyrrolidine-2,5-dione hydrochloride], the melting point is 157.8 to 159.2 °C. For the same molecule, in series [1], the responders at 100 mg/kg is 100%. The responders at 100 mg/kg in series [2] was 100%. Further, the “scPTZ: number of mice protected/number of mice tested” value in series [4] is “¾”.
The molecule `CCN(CC)C1CC(=O)N(C(C(=O)N2CCN(c3cccc(C(F)(F)F)c3)CC2)c2ccccc2)C1=O.Cl` (stereo not shown) [Compound 50, 3-(Diethylamino)-1-(2-oxo-1-phenyl-2-(4-(3-(trifluoromethyl)phenyl)piperazin-1-yl)ethyl)pyrrolidine-2,5-dione hydrochloride] registered a melting point of 142.2 to 143.1 °C. In series [1], the responders at 100 mg/kg is 100%. Moreover, in series [2], the responders at 100 mg/kg is 100%. Besides, the responders at 100 mg/kg in series [4] was 50%.

For the origin of these results see patent publication US12139458B2, “(2,5-dioxopyrrolidin-1-yl)(phenyl)-acetamide derivatives and their use in the treatment of neurological diseases” (UNIWERSYTET JAGIELLONSKI, priority 2019, dated 2024).
